Experimental data published in US11530244B2, “Cyclic polypeptides for PCSK9 inhibition” (priority 2018, dated 2022).
Starred links: 1 amine or outer side, 2 acyl side, 3 side chain; linkers in the order of their positions; H or OH if unused. Positions of bridges follow the written chain, without caps; N, C: chain ends. Non-standard residues stand in square brackets, D forms with d. Residues, ends and D or L forms follow the SMILES beside them. *: point of attachment. X32 = O=C(CCc1cccc2c1oc1c(CCN[*:1])cccc12)[*:2]; Trp(5-F) = N[C@@H](Cc1c[nH]c2ccc(F)cc12)C(=O)O; X45 = O=C(CCC(=O)[*:1])NCc1ccc(CCN[*:2])cc1; Pro(cis-4-F) = O=C(O)[C@@H]1C[C@H](F)CN1; X4 = O=C(CCSCc1cccc(CSCCN[*:1])c1)[*:2]; Propanoyl(3,3,3-F3) = O=C(CC(F)(F)F)*; mXylylene = c1cc(C[*:1])cc(C[*:2])c1; AEF = NCCOc1ccc(C[C@H](N)C(=O)O)cc1; X46 = O=C(C[*:2])NCCCCC(=O)[*:1]; aThr = C[C@H](O)[C@H](N)C(=O)O; αMeP = C[C@@]1(C(=O)O)CCCN1; Isobutyryl = CC(C)C(=O)*; Piv = CC(C)(C)C(=O)*; Propionyl = CCC(=O)*; X28 = CC(C)(F)C(=O)*; Glycolyl = O=C(CO)*; X37 = O=C(CC1CC1)*; Mpa = O=C(O)CCS

Key:
PCSK9 [1] = molecular target: T1, PCSK9 (Homo sapiens (Human), UniProt Q8NBP7); experiment: PCSK9 Alexa FRET Plus assay (displacement of AlexaFluor647 tagged cyclic peptide Reagent B); format: binding; details: 0.5 nM PCSK9, 960 nM AF cyclic peptide Reagent B
Method: A solution containing 1 nM biotinylated PCSK9+2.5 nM Lance Streptavidin Europium (Strep-Eu) was made in 50 mM HEPES pH 7.4, 0.15 M NaCl, 5 mM CaCl2), 0.01% BSA, and 0.01% Surfactant P20. A separate solution containing 1920 nM of the AlexaFluor tagged cyclic peptide was made in the same buffer system. An Echo was used to transfer 0.075 ul of compound plus 0.675 ul of DMSO to each well of an assay plate followed by the addition of 15 ul of PCSK9+Stept-Eu and 15 ul of AF peptide. The final assay volume was 30.750 ul containing 0.5 nM PCSK9, 1.25 nM Strep-Eu, and 960 nM AF cyclic peptide. The reaction was incubated at room temperature for at least two hours prior to fluorescence measurements using an Envision Multilabel Reader. IC50 values were determined by fitting data to a sigmoidal dose-response curve using nonlinear regression. Ki was then calculated from the IC50 and the KD of AF cyclic peptide. Counts (B-counts) of the europium-labeled PCSK9 were followed to observe if compounds were adversely affecting PCSK9. A fall off of the B-counts likely indicated a false positive of inhibition. Data from this procedure was reported as “P=‘numerical value’ (nanomolar)”

PCSK9 [2] = molecular target: T1, PCSK9; experiment: PCSK9 Alexa FRET Standard assay (displacement of AlexaFluor647 tagged cyclic peptide Reagent A); format: binding; details: 0.5 nM PCSK9, 20 nM AF cyclic peptide Reagent A
Procedure, shortened: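 TR-FRET displacement: 0.5 nM biotinylated PCSK9 with 1.25 nM Strep-Eu and 20 nM AlexaFluor-tagged cyclic peptide (final) in 50 mM HEPES pH 7.4, 0.15 M NaCl, 5 mM CaCl2, 0.01% BSA, 0.01% P20, ≥2 h at room temperature. IC50 from sigmoidal fit, converted to Ki via peptide KD; falling Eu counts flagged false positives.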

[3] = PCSK9 Alexa FRET Standard assay, read-out: IC50
[4] = Alexa FRET Plus, read-out: IC50
[5] = IC50, PCSK9 Alexa FRET Standard assay

T1 sequence (Q8NBP7 153-692): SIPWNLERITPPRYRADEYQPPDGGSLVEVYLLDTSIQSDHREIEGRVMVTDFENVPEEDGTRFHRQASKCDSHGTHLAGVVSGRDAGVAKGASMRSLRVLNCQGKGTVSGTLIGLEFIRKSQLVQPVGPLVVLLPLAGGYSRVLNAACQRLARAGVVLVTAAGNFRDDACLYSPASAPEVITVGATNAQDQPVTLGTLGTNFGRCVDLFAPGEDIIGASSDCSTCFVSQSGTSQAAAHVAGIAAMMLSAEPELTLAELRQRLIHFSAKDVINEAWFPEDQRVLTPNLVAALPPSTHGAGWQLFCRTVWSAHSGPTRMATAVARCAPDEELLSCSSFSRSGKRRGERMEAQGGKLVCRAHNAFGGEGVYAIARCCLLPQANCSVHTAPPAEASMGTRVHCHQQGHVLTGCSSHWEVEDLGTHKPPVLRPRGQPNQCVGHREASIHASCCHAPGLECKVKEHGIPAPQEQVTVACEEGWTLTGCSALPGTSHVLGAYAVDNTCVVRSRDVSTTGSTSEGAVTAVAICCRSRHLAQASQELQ

SMILES | IC50 (PCSK9 [2]; [3]) [nM] | IC50 (PCSK9 [1]; [4]) [nM] | IC50 (PCSK9 [1]; IC50, Alexa FRET Plus) [nM] | IC50 (PCSK9 [2]; [5]) [nM]
COc1ccc(C[C@@H]2NC(=O)[C@H]([C@@H](C)O)NC(=O)[C@@H]3C[C@H](F)CN3C(=O)[C@H](Cc3c[nH]c4ccc(F)cc34)NC(=O)[C@H](Cc3c[nH]c4ccc(F)cc34)NC(=O)[C@@H](C)NC(=O)CNC(=O)[C@@H](NC(C)=O)CCNCc3ccc(cc3)C[C@@H](C(N)=O)NC(=O)[C@]3(C)CCCN3C2=O)cc1 [Compound 102] | 0.11 to 100 |  | 500 to 5000 | 
COc1ccc(C[C@@H]2NC(=O)[C@H]([C@H](C)O)NC(=O)[C@H]3CCCN3C(=O)[C@H](Cc3c[nH]c4ccc(F)cc34)NC(=O)[C@H](Cc3c[nH]c4ccc(F)cc34)NC(=O)[C@@H](C)NC(=O)[C@H](CCCCN)NC(=O)CCSCc3cccc(c3)CSCCNC(=O)[C@]3(C)CCCN3C2=O)cc1 [Compound 103] (cyclo(K[dA][Trp(5-F)][Trp(5-F)][dP][aThr]Y(Me)[αMeP][X4])) | 0.11 to 100 | 500 to 5000 |  | 
COc1ccc(C[C@@H]2NC(=O)[C@H]([C@H](C)O)NC(=O)[C@@H]3C[C@H](F)CN3C(=O)[C@H](Cc3c[nH]c4ccc(F)cc34)NC(=O)[C@H](Cc3c[nH]c4ccc(F)cc34)NC(=O)[C@@H](C)NC(=O)[C@H](CCCCN)NC(=O)CCC(=O)NCc3ccc(cc3)CCNC(=O)[C@]3(C)CCCN3C2=O)cc1 [Compound 111] (K[dA][Trp(5-F)][Trp(5-F)][Pro(cis-4-F)][aThr]Y(Me)[αMeP]; linker N-C via X45) | 0.11 to 100 |  | 0.1 to 100 | 
COc1ccc(C[C@@H]2NC(=O)[C@H]([C@@H](C)O)NC(=O)[C@@H]3C[C@H](F)CN3C(=O)[C@H](Cc3c[nH]c4ccc(F)cc34)NC(=O)[C@H](Cc3c[nH]c4ccc(F)cc34)NC(=O)[C@@H](C)NC(=O)[C@H](CCCCN)NC(=O)[C@@H](NC(=O)C(C)(C)F)CC(=O)NCCOc3ccc(cc3)C[C@@H](C(N)=O)NC(=O)[C@]3(C)CCCN3C2=O)cc1 [Compound 112] (X28-DK[dA][Trp(5-F)][Trp(5-F)][Pro(cis-4-F)]TY(Me)[αMeP][AEF]-NH2; lactam 1-10) | 0.11 to 100 | 100 to 500 |  | 
COc1ccc(C[C@@H]2NC(=O)[C@H]([C@@H](C)O)NC(=O)[C@@H]3C[C@H](F)CN3C(=O)[C@H](Cc3c[nH]c4ccc(F)cc34)NC(=O)[C@H](Cc3c[nH]c4ccc(F)cc34)NC(=O)[C@@H](C)NC(=O)[C@H](CCCCN)NC(=O)[C@@H](NC(=O)CC(F)(F)F)CC(=O)NCCOc3ccc(cc3)C[C@@H](C(N)=O)NC(=O)[C@]3(C)CCCN3C2=O)cc1 [Compound 114] ({Propanoyl(3,3,3-F3)}-DK[dA][Trp(5-F)][Trp(5-F)][Pro(cis-4-F)]TY(Me)[αMeP][AEF]-NH2; lactam 1-10) | 21000 to 50000 | 500 to 5000 |  | 
COc1ccc(C[C@@H]2NC(=O)[C@H]([C@@H](C)O)NC(=O)[C@@H]3C[C@H](F)CN3C(=O)[C@H](Cc3c[nH]c4ccc(F)cc34)NC(=O)[C@H](Cc3c[nH]c4ccc(F)cc34)NC(=O)[C@@H](C)NC(=O)[C@H](CCCCN)NC(=O)[C@@H](NC(=O)C(C)(C)C)CC(=O)NCCOc3ccc(cc3)C[C@@H](C(N)=O)NC(=O)[C@]3(C)CCCN3C2=O)cc1 [Compound 119] (Piv-DK[dA][Trp(5-F)][Trp(5-F)][Pro(cis-4-F)]TY(Me)[αMeP][AEF]-NH2; lactam 1-10) | 21000 to 50000 | 500 to 5000 |  | 
C[C@@]12CCCN1C(=O)[C@H](Cc1ccc(O)cc1)NC(=O)CN1C(=O)[C@H](N=C(c3ccccc3)c3ccccc31)NC(=O)[C@H](Cc1c[nH]c3ccc(F)cc13)NC(=O)[C@H](Cc1c[nH]c3ccc(F)cc13)NC(=O)CNC(=O)[C@H](CCCCN)NC(=O)CCSCc1cccc(c1)CSC[C@@H](C(N)=O)NC2=O [Compound 121] |  |  | 0.1 to 100 | 0.11 to 100
C[C@@]12CCCN1C(=O)[C@H](Cc1ccc(O)cc1)NC(=O)CN1C(=O)[C@@H](N=C(c3ccccc3)c3ccccc31)NC(=O)[C@H](Cc1c[nH]c3ccc(F)cc13)NC(=O)[C@H](Cc1c[nH]c3ccc(F)cc13)NC(=O)CNC(=O)[C@H](CCCCN)NC(=O)CCSCc1cccc(c1)CSC[C@@H](C(N)=O)NC2=O [Compound 122] |  |  | 0.1 to 100 | 0.11 to 100
COc1ccc(C[C@@H]2NC(=O)[C@H]([C@@H](C)O)NC(=O)[C@@H]3C[C@H](F)CN3C(=O)[C@H](Cc3c[nH]c4ccc(F)cc34)NC(=O)[C@H](Cc3c[nH]c4ccc(F)cc34)NC(=O)[C@@H](C)NC(=O)[C@H](CCCCN)NC(=O)[C@@H](NC(=O)C(C)C)CC(=O)NCCOc3ccc(cc3)C[C@@H](C(N)=O)NC(=O)[C@]3(C)CCCN3C2=O)cc1 [Compound 123] (Isobutyryl-DK[dA][Trp(5-F)][Trp(5-F)][Pro(cis-4-F)]TY(Me)[αMeP][AEF]-NH2; lactam 1-10) | 0.11 to 100 | 0.1 to 100 |  | 

The next lines start with results.

IC50 (PCSK9 [2]; [3]) [nM] | IC50 (PCSK9 [1]; [4]) [nM] | SMILES | IC50 (PCSK9 [1]; IC50, Alexa FRET Plus) [nM] | IC50 (PCSK9 [2]; [5]) [nM]
0.11 to 100 | 500 to 5000 | COc1ccc(C[C@@H]2NC(=O)[C@H]([C@@H](C)O)NC(=O)[C@@H]3C[C@H](F)CN3C(=O)[C@H](Cc3c[nH]c4ccc(F)cc34)NC(=O)[C@H](Cc3c[nH]c4ccc(F)cc34)NC(=O)[C@@H](C)NC(=O)[C@H](CCCCN)NC(=O)[C@@H](NC(=O)CC3CC3)CC(=O)NCCOc3ccc(cc3)C[C@@H](C(N)=O)NC(=O)[C@]3(C)CCCN3C2=O)cc1 [Compound 108] (X37-DK[dA][Trp(5-F)][Trp(5-F)][Pro(cis-4-F)]TY(Me)[αMeP][AEF]-NH2; lactam 1-10) |  | 
0.11 to 100 | 100 to 500 | C[C@@]12CCCN1C(=O)[C@H](Cc1ccc(O)cc1)NC(=O)CN1C(=O)[C@@H](CCc3ccccc31)NC(=O)[C@H](Cc1c[nH]c3ccc(F)cc13)NC(=O)[C@H](Cc1c[nH]c3ccc(F)cc13)NC(=O)CNC(=O)[C@H](CCCCN)NC(=O)CCSCc1cccc(c1)CSC[C@@H](C(N)=O)NC2=O [Compound 109] |  | 
100 to 1000 | 500 to 5000 | COc1ccc(C[C@@H]2NC(=O)[C@H]([C@@H](C)O)NC(=O)[C@@H]3C[C@H](F)CN3C(=O)[C@H](Cc3c[nH]c4ccc(F)cc34)NC(=O)[C@H](Cc3c[nH]c4ccc(F)cc34)NC(=O)[C@@H](C)NC(=O)[C@H](CCCCN)NC(=O)[C@@H](NC(=O)CO)CC(=O)NCCOc3ccc(cc3)C[C@@H](C(N)=O)NC(=O)[C@]3(C)CCCN3C2=O)cc1 [Compound 115] (Glycolyl-DK[dA][Trp(5-F)][Trp(5-F)][Pro(cis-4-F)]TY(Me)[αMeP][AEF]-NH2; lactam 1-10) |  | 
21000 to 50000 | 500 to 5000 | COc1ccc(C[C@@H]2NC(=O)[C@H]([C@@H](C)O)NC(=O)[C@@H]3C[C@H](F)CN3C(=O)[C@H](Cc3c[nH]c4ccc(F)cc34)NC(=O)[C@H](Cc3c[nH]c4ccc(F)cc34)NC(=O)[C@@H](C)NC(=O)[C@H](CCCCN)NC(=O)[C@@H](NC(=O)CO)CC(=O)NCCOc3ccc(cc3)C[C@@H](C(N)=O)NC(=O)[C@]3(C)CCCN3C2=O)cc1 [Compound 116] (Glycolyl-DK[dA][Trp(5-F)][Trp(5-F)][Pro(cis-4-F)]TY(Me)[αMeP][AEF]-NH2; lactam 1-10) |  | 
0.11 to 100 | 500 to 5000 | COc1ccc(C[C@@H]2NC(=O)[C@H]([C@@H](C)O)NC(=O)[C@@H]3C[C@H](F)CN3C(=O)[C@H](Cc3c[nH]c4ccc(F)cc34)NC(=O)[C@H](Cc3c[nH]c4ccc(F)cc34)NC(=O)[C@@H](C)NC(=O)[C@H](CCCCN)NC(=O)CCCCNC(=O)COc3ccc(cc3)C[C@@H](C(N)=O)NC(=O)[C@]3(C)CCCN3C2=O)cc1 [Compound 117] (K[dA][Trp(5-F)][Trp(5-F)][Pro(cis-4-F)]TY(Me)[αMeP]Y-NH2; linker N-9 via X46) |  | 
21000 to 50000 | 500 to 5000 | CCC(=O)N[C@H]1CC(=O)NCCOc2ccc(cc2)C[C@@H](C(N)=O)NC(=O)[C@]2(C)CCCN2C(=O)[C@H](Cc2ccc(OC)cc2)NC(=O)[C@H]([C@@H](C)O)NC(=O)[C@@H]2C[C@H](F)CN2C(=O)[C@H](Cc2c[nH]c3ccc(F)cc23)NC(=O)[C@H](Cc2c[nH]c3ccc(F)cc23)NC(=O)[C@@H](C)NC(=O)[C@H](CCCCN)NC1=O [Compound 118] (Propionyl-DK[dA][Trp(5-F)][Trp(5-F)][Pro(cis-4-F)]TY(Me)[αMeP][AEF]-NH2; lactam 1-10) |  | 
1000 to 12100 | 500 to 5000 | C[C@@]12CCCN1C(=O)[C@H](Cc1ccc(O)cc1)NC(=O)CCc1cccc3c1Oc1c(cccc1-3)CCNC(=O)[C@H](Cc1c[nH]c3ccc(F)cc13)NC(=O)[C@H](Cc1c[nH]c3ccc(F)cc13)NC(=O)CNC(=O)[C@H](CCCCN)NC(=O)CCSCc1cccc(c1)CSC[C@H](C(N)=O)NC2=O [Compound 120] ([Mpa]KG[Trp(5-F)][Trp(5-F)][X32]Y[αMeP][dC]-NH2; linker 1-9 via mXylylene) |  | 
